ChEMBL document CHEMBL3593183, “Polycyclic Polyprenylated Xanthones from Symphonia globulifera: Isolation and Biomimetic Electrosynthesis” (J Nat Prod, 2015)

Tested on: HCT-116
Assay: Cytotoxicity against human HCT116 cells after 72 hrs by MTS assay
Assay type: functional, cell-based
Settings: HCT-116, 72 h

SMILES | IC50
CC(C)=CCC[C@]1(C)[C@@H](CC=C(C)C)C[C@@]2(CC=C(C)C)C(=O)c3c(oc4cc(O)c(O)cc4c3=O)[C@]1(CC=C(C)C)C2=O | 8 µM
CC(C)=CCC[C@]1(C)[C@@H](CC=C(C)C)C[C@]2(CC=C(C)C)C(=O)[C@@]1(CC=C(C)C)C(=O)c1c2oc2cc(O)c(O)cc2c1=O | 3 µM
